Consider 19 molecules from PubChem BioAssay AID493130 (Broad Institute, 2011).

Results filed as inconclusive are left out. Active and inactive are the calls of the source.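 The calls were made as follows: active = signal-lowering compounds whose fitted half-maximal concentration is at most ten times their highest tested dose; inconclusive = flat fit between -30 and -70%, or poor fit; inactive = flat within 30%, signal rising, or potency beyond limit.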 Bounds are passed on as bounds.

Usually AC50 stands for the concentration at which the activity in the assay is half-maximal.

In one assay the target is POS-1 (Caenorhabditis elegans) binding to mex-3 RNA. As to the kind of experiment: C. elegans POS-1 RNA interaction disruptors – biochemical, fluorescence polarization, cherry-picked samples, set 2, counter-screen for MEX-5 RNA-binding inhibitor project, dose response (AID 493130).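 Also: POS-1 as maltose binding protein fusion made in E. coli with FITC RNA.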 The conditions noted are these: POS-1/mex-3 RNA fluorescence polarization, 1 h. A general note: In fluorescence polarisation assays a small probe gives low polarisation when free and higher when bound to something large.
In the case of `COc1ccc(-c2onc3ccc(C(C)=O)cc23)cc1`, the AC50 was less than 0.08 µM.

`Cc1ccc(C)n1-c1sccc1C(=O)O`: the half-maximal activity concentration (AC50) is 6.08 µM.

For `Cc1ccc(NC(=O)/C(C#N)=C(\N)C(Cl)(Cl)Cl)nc1`, the AC50 was 6.68 µM.

The assay is the same for the next values; noted with them: POS-1/mex-3 RNA fluorescence polarization, 1 h; at 10 µM (top of the series).
For the molecule `O=C(O)c1ccc(N2Cc3ccccc3C2)cc1O`, the “activity change, negative = inhibition” value is “inactive”.

As for `COC(=O)c1ccc(-c2ccc(C(c3c(C)[nH][nH]c3=O)c3c(C)[nH][nH]c3=O)o2)cc1`, the “activity change, negative = inhibition” value is “inactive”.

As for `COCC(C)N1CCC(Oc2cccc(C(=O)NCCc3ccccc3)c2)CC1` (centres undefined), the “activity change, negative = inhibition” value was “inactive”.

Turning to `Cc1cccc(/C=C(\C#N)C(=O)Nc2ccccn2)c1`, the “activity change, negative = inhibition” value was “inactive”.

With `CCCCN(C(=O)c1ccc(C)o1)c1c(N)n(CCCC)c(=O)[nH]c1=O`, the “activity change, negative = inhibition” value was “inactive”.

For `C#CCOCCOCCOCCNc1nc(N2CCN(C(=O)[C@H]([C@@H](C)CC)n3cc([C@@H](N)CO)nn3)CC2)nc(N2CCN(C(=O)[C@H]([C@@H](C)CC)n3cc([C@@H](N)CO)nn3)CC2)n1`, the “activity change, negative = inhibition” value was “inactive”.

For the molecule `Oc1ccc(C2C=C(c3ccc(F)cc3)Nc3ncnn32)cc1` (centres undefined), the “activity change, negative = inhibition” value is “inactive”.

`O=C1C(Cl)=C(NC2CCCCC2)C(=O)N1c1ccc(Cl)cc1`: the “activity change, negative = inhibition” value is “inactive”.

`COc1c(O)ccc(/C=C(\C#N)c2nc3ccccc3[nH]2)c1[N+](=O)[O-]`: the “activity change, negative = inhibition” value is “inactive”.

Consider `Cc1c(C=O)c(Cl)n(C)c(=O)c1C#N`, for which the “activity change, negative = inhibition” value is “inactive”.

On to `CC(=O)CSc1ncnc2nc[nH]c12`, for which the “activity change, negative = inhibition” value was “inactive”.

`NC(=O)c1cccc2cc3ccccc3cc12`: the “activity change, negative = inhibition” value was “inactive”.

Turning to `COc1ccc(CCn2c(=N)c(C(=O)NCC3CCCO3)cc3c(=O)n4ccccc4nc32)cc1` (centres undefined), the “activity change, negative = inhibition” value was “inactive”.

Take `COC(=O)COc1ccc2c(c1)O/C(=C\c1cccc([N+](=O)[O-])c1)C2=O`: the “activity change, negative = inhibition” value was “inactive”.

As for `Cc1cccc(C(=O)NNC(=O)c2csc(N3CCOCC3)n2)c1C`, the “activity change, negative = inhibition” value is “inactive”.

`CC(=O)Nc1ccc(/C=N\NC(=O)CNS(=O)(=O)c2ccc([N+](=O)[O-])cc2)cc1`: the “activity change, negative = inhibition” value is “inactive”.
